Experimental data as given in patent publication EP0233686A2, “Bis phenyl ethanol amines and bis phenyoxypropanolamines having a beta-agonist activity” (BEECHAM GROUP PLC, priority 1986, dated 1987).
Counter-ions that a name gives are not always drawn.

System: Female CFLP mice
Assay: Hypoglycaemic activity: oral compound, then subcutaneous glucose load in fasted mice; area under the blood glucose curve over 2 hours compared with water controls
Type: in vivo
Conditions: Mus musculus, mice fasted for 24 hours, glucose 1g/kg s.c. 30 minutes after dosing, 2 hour AUC vs water controls, read-out: % reduction in area under blood glucose curve; for inhibition in vivo at 3 µmol/kg: dose 3 µmol/Kg p.o.
Description: Female CFLP mice, weighing approximately 25g, were fasted for 24 hours prior to the study. The compounds under study were administered orally as an aqueous solution to each of 6 mice. 30 minutes later a blood sample (20ul) was obtained from the tail for the analysis of blood glucose. Immediately after taking this blood sample, glucose (lg/kg body weight) was administered subcutaneously to each mouse. 6 mice were -given water as a control. Blood samples were then obtained from each mouse at 30 minute intervals for 120 minutes. Compounds that produced a significant (p>0.05) reduction of blood glucose, compared with control mice given water, at any time interval were considered active. The area under the blood glucose curve over the 2 hour period after the administration of the glucose was calculated for each compound and compared with the value for control animals.

C[C@H](Cc1ccc(OCCCCCOc2ccc(C[C@@H](C)NC[C@H](O)c3cccc(Cl)c3)cc2)cc1)NC[C@H](O)c1cccc(Cl)c1 [Example 20, [R,R,R,R]-α,α'-[1,5-Pentanediylbis[oxy-4,1-phenylene (1-methyl-2,1-ethanediyl)iminomethylene]] bis[3-chlorobenzenemethanol], dihydrochloride]
inhibition in vivo at 0.1 µmol/kg (dose 0.1 µmol/Kg p.o.): 51%

C[C@H](Cc1ccc(OCCCCCCCCCOc2ccc(C[C@@H](C)NC[C@H](O)c3cccc(Cl)c3)cc2)cc1)NC[C@H](O)c1cccc(Cl)c1 [Example 13, [R,R,R,R,]-α,α'[1,9-Nonanediylbis[oxy-4,1-phenylene (1-methyl-2,1-ethanediyl)iminomethylene]]bis[3-chlorobenzenemethanol], dihydrochloride]
inhibition in vivo at 3 µmol/kg: 34%

C[C@H](Cc1ccc(OCCCCCCOc2ccc(C[C@@H](C)NC[C@H](O)c3cccc(Cl)c3)cc2)cc1)NC[C@H](O)c1cccc(Cl)c1 [Example 3, [R,R,R,R]-α,α'[1,6-Hexanediylbis[oxy-4,1-phenylene(1-methyl-2,1-ethanediyl)iminomethylene]]bis[3-chlorobenzenemethanol], dihydrochloride]
inhibition in vivo at 1 µmol/kg (dose 1.0 µmol/Kg p.o.): 55%

C[C@H](Cc1ccc(OCC(=O)NCCNC(=O)COc2ccc(C[C@@H](C)NC[C@H](O)c3cccc(Cl)c3)cc2)cc1)NC[C@H](O)c1cccc(Cl)c1 [Example 1, [R,R,R,R]-N,N'-(1,2-Ethanediyl)bis[2-[4-[2-[(2-(3-chlorophenyl)-2-hydroxyethyl)amino]propyl]phenoxy]acetamide]]
inhibition in vivo at 12.5 µmol/kg (dose 12.5 µmol/Kg p.o.): 43%

C[C@H](Cc1ccc(CNCCCCNCc2ccc(C[C@@H](C)NC[C@H](O)c3cccc(Cl)c3)cc2)cc1)NC[C@H](O)c1cccc(Cl)c1 [Example 16, [R,R,R,R]-α,α'-[1,4-Butanediylbis[iminomethylene-4,1-phenylene(1-methyl-2,1-ethanediyl)iminomethylene]]bis [3-chlorobenzenemethanol, tetrahydrochloride]
inhibition in vivo at 3 µmol/kg: 8%

C[C@H](Cc1ccc(S(=O)(=O)c2ccc(C[C@@H](C)NC[C@H](O)c3cccc(Cl)c3)cc2)cc1)NC[C@H](O)c1cccc(Cl)c1 [Example 6, [R,R,R,R]-α,α'-[Sulphonylbis[4,1-phenylene(1-methyl-2,1-ethanediyl)iminomethylene]]bis|3-chlorobenzenemethanol] dihydrochloride]
inhibition in vivo at 3 µmol/kg: 30%

C[C@H](Cc1ccc(C(O)(CO)c2ccc(C[C@@H](C)NC[C@H](O)c3cccc(Cl)c3)cc2)cc1)NC[C@H](O)c1cccc(Cl)c1 [Example 7, [R,R,R,R]-1,1-di[4-[2-[[2-(3-chlorophenyl)-2-hydroxyethyl]amino]propyl]phenyl]-1,2-ethanediol, dihydrochloride]
inhibition in vivo at 2.5 µmol/kg (dose 2.5 µmol/Kg p.o.): 17%

C[C@H](Cc1ccc(CCCCCCc2ccc(C[C@@H](C)NC[C@H](O)c3cccc(Cl)c3)cc2)cc1)NC[C@H](O)c1cccc(Cl)c1 [Example 19, [R,R,R,R]-α,α'-[1,6-Hexanediylbis[4,1-phenylene (1-methyl-2,1-ethanediyl)iminomethylene]] bis[3-chlorobenzenemethanol], dihydrochloride]
inhibition in vivo at 10 µmol/kg (dose 10 µmol/Kg p.o.): 11%
